For one assay, the target named is T1, CCKB receptor (Mus musculus, UniProt P56481).
T1 construct: The cortex was dissected, weighed and homogenised in 40 ml ice-cold buffer; from tissue; host or cells: cerebral cortex membranes of male CD1 mice (Charles River)
T1 sequence (P56481 1-453): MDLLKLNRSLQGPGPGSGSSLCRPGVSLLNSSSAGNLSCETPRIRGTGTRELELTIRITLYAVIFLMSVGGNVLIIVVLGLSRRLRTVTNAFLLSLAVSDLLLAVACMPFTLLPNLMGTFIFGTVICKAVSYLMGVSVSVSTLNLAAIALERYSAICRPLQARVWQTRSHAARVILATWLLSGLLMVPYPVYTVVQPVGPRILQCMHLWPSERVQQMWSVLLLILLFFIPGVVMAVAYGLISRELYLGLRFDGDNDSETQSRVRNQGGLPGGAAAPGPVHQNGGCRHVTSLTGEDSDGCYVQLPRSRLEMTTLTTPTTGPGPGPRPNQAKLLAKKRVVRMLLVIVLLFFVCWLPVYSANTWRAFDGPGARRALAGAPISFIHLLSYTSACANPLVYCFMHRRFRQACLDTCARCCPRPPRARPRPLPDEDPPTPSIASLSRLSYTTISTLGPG
Kind of assay: radioligand binding assay at the CCKB receptor in mouse cortical membranes ([125I]-CCK8S). As to conditions: 150 min at 21±3°; for Ki: read-out: CCKB pKi (converted). Here is the method: The compounds of the examples were tested for binding at the CCKB receptor in mouse cortical membranes by means of a radioligand binding assay. The procedure was as follows:
The whole brains from male mice (CD1 22-25 g; Charles River) were removed and placed in ice-cold buffer (pH7.2 @ 21±3 °) of the following composition (mM); 10 HEPES, 130 NaCl, 4.7 KCl, 5 MgCl2, 1 EDTA and containing 0.25 g.1^-1 bacitracin. The cortex was dissected, weighed and homogenised in 40 ml ice-cold buffer using a Teflon-in-glass homogeniser. The homogenate was centrifuged at 39,800 g for 20 min at @ 4°, the supernatant discarded and the pellet resuspended by homogenisation in fresh buffer. The homogenate was recentrifuged (39,800 g; 20 min @4°) and the final pellet was resuspended in HEPES buffer to give a tissue concentration of 2 mg.ml^-1 (original wet weight).
The membranes ([…]) were incubated for 150 min at 21±3° in a final volume of 0.5 ml with HEPES buffer containing [^125 I]-CCK8S (0.05 ml; 200 pM NEN 2200 Ci.mmol^-1) and competing compound. Total and non-specific binding of [^125 I]-CCK8S were defined using 0.05 ml of buffer and 0.05 ml of […] L-365,260, respectively. The assay was terminated by rapid filtration through pre-soaked Whatman GF/B filters using a Brandell Cell harvester. The filters were washed (3×3 ml) with ice-cold 50 mM Tris-HC1 (pH7.4 @ 4° C.) and bound radioactivity determined by counting (1 min.) in a gamma-counter.

The next assay addresses T2, gastrin receptors (Rattus norvegicus, UniProt P30553).
T2 construct: from tissue; host or cells: isolated perfused whole stomach of immature rats (33-50 g, ca. 21 days old)
T2 sequence (P30553 1-452): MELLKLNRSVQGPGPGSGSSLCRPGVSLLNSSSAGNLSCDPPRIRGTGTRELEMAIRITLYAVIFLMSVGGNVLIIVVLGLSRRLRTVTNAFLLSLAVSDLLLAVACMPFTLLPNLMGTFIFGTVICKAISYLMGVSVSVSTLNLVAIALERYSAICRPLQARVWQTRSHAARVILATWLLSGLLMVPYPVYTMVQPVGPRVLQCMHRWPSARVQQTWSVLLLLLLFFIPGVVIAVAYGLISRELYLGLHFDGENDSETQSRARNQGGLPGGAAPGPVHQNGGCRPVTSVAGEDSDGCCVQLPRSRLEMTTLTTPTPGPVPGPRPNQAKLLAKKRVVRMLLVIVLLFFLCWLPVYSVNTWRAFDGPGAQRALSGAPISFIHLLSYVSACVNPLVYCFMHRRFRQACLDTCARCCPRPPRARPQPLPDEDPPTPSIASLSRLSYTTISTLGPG
The assay is described as follows: gastrin antagonist activity in an immature rat stomach assay (pentagastrin-stimulated acid secretion). As to conditions: isolated immature rat stomach, cumulative pentagastrin dose-response curves; for Kb: read-out: Gastrin pKB (converted). Here is the method:
The compounds of the examples were also tested for gastrin antagonist activity in an immature rat stomach assay. The procedure was as follows:
The oesophagus of immature rats (33-50 g, ca. 21 days old) was ligated at the level of the cardiac sphincter and the duodenal sphincter was cannulated. The stomach was excised and flushed with ca. 1 ml of unbuffered physiological saline solution. The fundus was punctured and cannulated. A further 4-5 ml of unbuffered solution was flushed through the stomach to ensure the preparation was not leaking. The stomach was lowered into a jacketed organ bath containing 40 ml of buffered solution containing 3×10^-8 M 5-methyl-furmethide, maintained at 37° and gassed vigorously with 95% O2 /5% CO2. The stomach was continuously perfused at a rate of 1 ml min^-1 with unbuffered solution gassed with 100% O2 with the perfusate passing over an internally referenced pH-electrode fixed 12 cm above the stomach.
After 120 min of stabilisation the drugs were added directly to the serosal solution in the organ bath and after a further 60 min cumulative pentagastrin dose-response curves were started. Changes in acid secretion were monitored and the curves analysed according to Black et. al., Br. J. Pharmacol., 1985, 86, 581.

As to `O=C(NCC12CC3CC(CC(C3)C1)C2)C1C2C=CC(c3ccccc32)C1C(=O)N[C@H](Cc1c[nH]c2ccccc12)C(=O)O` (single isomer, unassigned) [Example 16, endo-cis-7-(2-R-(3-indolyl)-1-carboxy-ethylaminocarbonyl)-8-(1-adamantylmethylaminocarbonyl)-5 , 6-benzobicyclo[2.2.2]oct-2-ene], the Ki on CCKB receptor is 316 nM. Also, the Kb at gastrin receptors was 501 nM.

Consider `O=C1CC2c3ccccc3C1C(C(=O)O)C2C(=O)NCC12CC3CC(CC(C3)C1)C2` (mixture of isomers) [Example 13, endo-(±)-cis-8-(1-adamantylmethylaminocarbonyl)-2-oxo-5,6-benzobicyclo[2.2.2]octane-7-carboxylic acid], for which the Ki at CCKB receptor is 2510 nM. Besides, the Kb on gastrin receptors was 3160 nM.

As to `COC(=O)C12CC(c3ccccc31)C(C(=O)NCC13CC4CC(CC(C4)C1)C3)C2C(=O)N1CCC[C@@H]1C(=O)O` (mixture of isomers) [Example 56, (±)-1-methoxycarbonyl-endo-cis-6-(2R-carboxypyrrolidinocarbonyl)-7-(1-adamantylmethylaminocarbonyl)-2,3-benzobicyclo[2.2.1]heptane], the “CCKB pKi” value at CCKB receptor is given as 5.1. For the same molecule, the “Gastrin pKB” value at gastrin receptors (60 min) is on record as 5.6.

`COC(=O)[C@@H]1CCCN1C(=O)C1C2C=CC(c3ccccc32)C1C(=O)NCC12CC3CC(CC(C3)C1)C2` (stereo partly drawn) [Example 30, endo-cis-7-(2-S-methoxycarbonyl-pyrrolidinocarbonyl)-8-(1-adamantylmethylaminocarbonyl)-5,6-benzo-bicyclo[2.2.2]oct-2-ene]: on CCKB receptor, the Ki was 501 nM. The Kb on gastrin receptors is 398 nM.

Turning to `COC(=O)[C@H](C)NC(=O)C1C2C=CC(c3ccccc32)C1C(=O)NCC12CC3CC(CC(C3)C1)C2` (stereo partly drawn) [Example 7, exo-cis-7-(1-S-methoxycarbonyl-ethylaminocarbonyl)-8-(1-adamantylmethylaminocarbonyl)-5,6-benzobicyclo[2.2.2]oct-2-ene], the Ki on CCKB receptor was 251 nM. The Kb on gastrin receptors is 316 nM.

As for `COC(=O)[C@H](C)NC(=O)C1C2CCC(c3ccccc32)C1C(=O)NCC12CC3CC(CC(C3)C1)C2` (stereo partly drawn) [Example 23, exo-cis-7-(1-S-Methoxycarbonyl-ethylaminocarbonyl)-8-(1-adamantylmethylaminocarbonyl)-2,3-benzobicyclo[2.2.2]octane], at CCKB receptor, the Ki is 398 nM. Also, the Kb at gastrin receptors was 316 nM.

Turning to `O=C(O)c1cc(NC(=O)[C@H](Cc2ccccc2)NC(=O)C2C3CCC(c4ccccc43)C2C(=O)NCC23CC4CC(CC(C4)C2)C3)cc(C(=O)O)c1` (stereo partly drawn) [Example 61, exo-cis-7-(1S-(3,5-dicarboxyphenylaminocarbonyl)-2-phenyl-ethylaminocarbonyl)-8-(1-adamantylmethylaminocarbonyl)-2,3-benzobicyclo[2.2.2]octane], the Ki on CCKB receptor was 1000 nM. The Kb at gastrin receptors is 251 nM.

Turning to `O=C(NCC12CC3CC(CC(C3)C1)C2)C1C2C=CC(c3ccccc32)C1C(=O)N1CCC[C@@H]1C(=O)O` (stereo partly drawn) [Example 10, endo-cis-7-(2-R-carboxy-pyrrolidinocarbonyl)-8-(1-adamantylmethylaminocarbonyl)-5,6-benzobicyclo[2.2.2]oct-2-ene], at CCKB receptor, the Ki was 2000 nM. The Kb at gastrin receptors is 1580 nM.

`O=C(O)c1cc(NC(=O)[C@H](Cc2ccccc2)NC(=O)C2C3C=CC(c4ccccc43)C2C(=O)NCC23CC4CC(CC(C4)C2)C3)cc(C(=O)O)c1` (stereo partly drawn) [Example 60, exo-cis-7-(1S-(3,5-dicarboxyphenylaminocarbonyl)-2-phenyl-ethylaminocarbonyl)-8-(1-adamantylmethylaminocarbonyl)-5,6-benzobicyclo[2.2.2]oct-2-ene]: the Ki on CCKB receptor is 316 nM. Besides, the Kb at gastrin receptors is 50.1 nM.

For `O=C(O)[C@@H]1[C@H](C(=O)NCC23CC4CC(CC(C4)C2)C3)[C@H]2C=C[C@@H]1c1ccccc12` (relative stereo) [Example 2, endo-(±)-cis-8-(1-adamantylmethylaminocarbonyl)-5,6-benzobicyclo[2.2.2]oct-2-ene-7-carboxylic acid], the Ki on CCKB receptor was 2510 nM. For the same molecule, the Kb on gastrin receptors is 1260 nM.

Consider `COC(=O)[C@H](C)NC(=O)C1C2C(C)=C(C)C(c3ccccc32)C1C(=O)NCC12CC3CC(CC(C3)C1)C2` (stereo partly drawn) [Example 19, exo-cis-7-(1-S-Methoxycarbonyl-ethylaminocarbonyl)-8-(1-adamantylmethylaminocarbonyl)-2,3-dimethyl-5,6-benzobicyclo[2.2.2]oct-2-ene], for which the Ki on CCKB receptor is 398 nM. Further, the Kb at gastrin receptors is 1580 nM.

For `CC1=C(C)[C@H]2c3ccccc3[C@@H]1[C@@H](C(=O)O)[C@H]2C(=O)NCC12CC3CC(CC(C3)C1)C2` (relative stereo) [Example 11, exo-(±)-cis-8-(1-adamantylmethylaminocarbonyl)-2,3-dimethyl-5,6-benzobicyclo[2.2.2]oct-2-ene-7-carboxylic acid], at CCKB receptor, the Ki is 1580 nM. In addition, the Kb on gastrin receptors was 6310 nM.

For the molecule `COC(=O)[C@H](C)NC(=O)C1C2CCC(CC2)C1C(=O)NCC12CC3CC(CC(C3)C1)C2` (mixture of isomers) [Example 25, cis-(±)-2-(1-S-Methoxycarbonyl-ethylaminocarbonyl)-3-(1-adamantylmethylaminocarbonyl)-bicyclo[2.2.2]octane], at CCKB receptor, the Ki is 7940 nM. The Kb at gastrin receptors is 1000 nM.

On to `COC(=O)[C@H](C)NC(=O)C1C2CCC(c3ccccc32)C1C(=O)NCC12CC3CC(CC(C3)C1)C2` (stereo partly drawn) [Example 22, endo-cis-7-(1-S-Methoxycarbonyl-ethylaminocarbonyl)-8-(1-adamantylmethylaminocarbonyl)-2,3-benzobicyclo[2.2.2]octane], for which the Ki at CCKB receptor is 631 nM. For the same molecule, the Kb at gastrin receptors was 200 nM.

For `COC(=O)[C@@H]1CCCN1C(=O)C1C2C=CC(c3ccccc32)C1C(=O)NCC12CC3CC(CC(C3)C1)C2` (stereo partly drawn) [Example 31, exo-cis-7-(2-S-methoxycarbonyl-pyrrolidinocarbonyl)-8-(1-adamantylmethylaminocarbonyl)-5,6-benzo-bicyclo[2.2.2]oct-2-ene], the Kb on gastrin receptors was 501 nM.

Consider `COC(=O)[C@@H]1CCCN1C(=O)C1C2c3ccccc3C(c3cc4ccccc4cc32)C1C(=O)NCC12CC3CC(CC(C3)C1)C2` (stereo partly drawn) [Example 21, endo and exo cis-7-(2-S-methoxy-carbonylpyrrolidinocarbonyl)-8-(1-adamantylmethylaminocarbonyl)-2,3-benzo-5,6-(2,3-naphtho) bicyclo-[2.2.2]octane], for which the Ki at CCKB receptor was 398 nM.

Source of the values: US5674905A, “Bicyclooctane and bicycloheptane derivatives” (James Black Foundation Limited, priority 1992, dated 1997).
